Results on 11 molecules are retold here after ChEMBL document CHEMBL1201862, “PubChem BioAssay data set” (2004).

Some test systems named below: SF-539; HCT-15; EKVX; MDA-MB-435; UACC-257; ACHN; MDA-N; Malme-3M; OVCAR-3; M14; MDA-MB-231; TK-10; SR; SF-268; NCI-H23; NCI/ADR-RES; HL-60; OVCAR-4; CAKI-1; HCC 2998.
Assay in all cases: NCI anticancer screen, dose series, 48 h

Each structure is given as a SMILES string.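 The compound was tested at five concentrations on cells cultured in 96-well plates, with a 48-hour exposure period. Abbreviation: GI50, concentration required for 50% inhibition of growth.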 Calls of active or inactive are those of the source. No stated cut-off is given here; in the data, active = GI50 up to about 1.1 µM and inactive = higher.

Consider `C=CCCC(=O)C(=[N+]=[N-])C(=O)CCC(=O)c1ccccc1`, for which the GI50 in the assay on SF-539 was > 10 µM (inactive); with HCT-15, above 10 µM; in the assay with EKVX, > 10 µM (inactive); in the assay with MDA-MB-435, > 10 µM (inactive); in the assay with UACC-257, > 10 µM (inactive); in the assay with ACHN it was > 10 µM (inactive). The GI50 in the assay with MDA-N, with Malme-3M, with OVCAR-3, in the assay with M14, in the assay with MDA-MB-231 and in the assay on TK-10 was > 10 µM (inactive) in each case. Further, the GI50 in the assay on SR, in the assay on SF-268 and in the assay on NCI-H23 was > 10 µM (inactive) throughout.

For the molecule `CCCn1c(=O)c(N2CCN(c3ccccc3)CC2)nc2sc3ccccc3c21`, the GI50 was > 100 µM (inactive) in the assay on SF-539; above 100 µM in the assay with HCT-15; > 100 µM (inactive) in the assay on NCI/ADR-RES; > 100 µM (inactive) in the assay with EKVX; > 100 µM (inactive) in the assay on MDA-MB-435; > 100 µM (inactive) with UACC-257. Also, the GI50 was > 100 µM (inactive) with ACHN; 49.7 µM (inactive) in the assay with HL-60; > 100 µM (inactive) with MDA-N; > 100 µM (inactive) with OVCAR-4; > 100 µM (inactive) in the assay with CAKI-1; > 100 µM (inactive) in the assay with Malme-3M. Moreover, the GI50 with OVCAR-3, in the assay with M14, in the assay with MDA-MB-231, with TK-10, in the assay with SF-268 and in the assay with NCI-H23 was > 100 µM (inactive) each time.

Regarding `Cc1ccc(S(=O)(=O)NC(=O)NC(C(=O)O)C(C)O)cc1` (stereo unspecified), the GI50 in the assay on SF-539 was > 100 µM (inactive); in the assay with HCT-15, above 100 µM; with NCI/ADR-RES it was > 100 µM (inactive); in the assay with UACC-257 it was > 100 µM (inactive); in the assay with ACHN it was > 100 µM (inactive); in the assay with HL-60 it was > 100 µM (inactive). For the same molecule, the GI50 with MDA-N, in the assay with OVCAR-4, in the assay with Malme-3M, in the assay on M14, in the assay with MDA-MB-231 and in the assay with TK-10 was > 100 µM (inactive) throughout. For the same molecule, the GI50 in the assay on SR, in the assay on SF-268 and with NCI-H23 was > 100 µM (inactive) each time.

For the molecule `O=[N+]([O-])c1cc(C(F)(F)F)ccc1S(=O)(=O)N[C@@H]1CCCC[C@H]1NS(=O)(=O)c1ccc(C(F)(F)F)cc1[N+](=O)[O-]`, the GI50 in the assay with SF-539 was 1.81 µM (inactive); with HCT-15 it was 2.69 µM; with NCI/ADR-RES, 2.51 µM (inactive); with EKVX, 6.5 µM (inactive); with MDA-MB-435, 2.15 µM (inactive); in the assay with UACC-257, 8.07 µM (inactive). In addition, the GI50 was 2.7 µM (inactive) in the assay on ACHN; 4.28 µM (inactive) in the assay with HCC 2998; 1.39 µM (inactive) in the assay on HL-60; 3.63 µM (inactive) in the assay on MDA-N; 2.61 µM (inactive) with OVCAR-4; 2.65 µM (inactive) in the assay with CAKI-1. Moreover, the GI50 was 2.49 µM (inactive) with Malme-3M; 2.38 µM (inactive) in the assay with OVCAR-3; 2.75 µM (inactive) in the assay with M14; 2.77 µM (inactive) with MDA-MB-231; 11 µM (inactive) in the assay on TK-10; 2.49 µM (inactive) with SF-268. The GI50 in the assay on NCI-H23 is 2.28 µM (inactive).

`COC(=O)[C@H](Cc1ccccc1)NC(=O)N1CCCN(C(=O)N[C@@H](Cc2ccccc2)C(=O)OC)CCCN(C(=O)N[C@@H](Cc2ccccc2)C(=O)OC)CCC1`: the GI50 with HCT-15 is 27.8 µM; with NCI/ADR-RES it was 30.8 µM (inactive); in the assay on EKVX, 21.8 µM (inactive); with MDA-MB-435 it was 20.6 µM (inactive); in the assay on UACC-257 it was 18.2 µM (inactive); in the assay with ACHN, 17.1 µM (inactive). The GI50 in the assay on HCC 2998 was 18.1 µM (inactive); in the assay on HL-60 it was 32.8 µM (inactive); in the assay on MDA-N it was 26.1 µM (inactive); in the assay with OVCAR-4 it was 20.7 µM (inactive); in the assay with CAKI-1 it was 25.5 µM (inactive); with Malme-3M, 17.2 µM (inactive). Besides, the GI50 in the assay on OVCAR-3 was 16.9 µM (inactive); in the assay with M14 it was 18 µM (inactive); in the assay with TK-10, 22.3 µM (inactive); in the assay on SF-268, 17.5 µM (inactive); with NCI-H23 it was 27.2 µM (inactive).

Consider `Cc1nn(-c2ccccc2)c(C)c1/C=N/N=C1\S/C(=C\c2ccc(Cl)cc2)C(=O)N1c1ccccc1`, for which the GI50 with SF-539 was > 100 µM (inactive); in the assay with HCT-15, 9.89 µM; in the assay with NCI/ADR-RES, 17.2 µM (inactive); in the assay with EKVX it was > 100 µM (inactive); in the assay with MDA-MB-435 it was 32 µM (inactive); in the assay with UACC-257, > 100 µM (inactive). Besides, the GI50 with ACHN is 68.7 µM (inactive); in the assay with HL-60 it was 11.8 µM (inactive); in the assay on MDA-N, 62.5 µM (inactive); with OVCAR-4, 2.15 µM (inactive); in the assay with CAKI-1, > 100 µM (inactive); in the assay with Malme-3M, 28.1 µM (inactive). The GI50 in the assay on OVCAR-3 is > 100 µM (inactive); in the assay with M14, > 100 µM (inactive); in the assay with MDA-MB-231, 34.7 µM (inactive); in the assay on TK-10, 14.2 µM (inactive); in the assay with SF-268, 51.5 µM (inactive); with NCI-H23, 7.38 µM (inactive).

In the case of `O=c1c2cc(Br)cc(Br)c2[nH]c(=S)n1-c1ccc(/N=N/c2ccc(O)c3cccnc23)cc1`, the GI50 with SF-539 was 11.5 µM (inactive); with EKVX, 38.6 µM (inactive); in the assay on MDA-MB-435, 35.4 µM (inactive); in the assay with UACC-257 it was 50.5 µM (inactive); with ACHN, 25.4 µM (inactive); with HL-60 it was 38.1 µM (inactive). For the same molecule, the GI50 in the assay with MDA-N was 31.4 µM (inactive); with OVCAR-4 it was 57.9 µM (inactive); in the assay with CAKI-1, 54.3 µM (inactive); in the assay on Malme-3M it was 18.7 µM (inactive); with OVCAR-3 it was 14 µM (inactive); in the assay with M14, 39.7 µM (inactive). Further, the GI50 is 32.2 µM (inactive) in the assay with MDA-MB-231, 66.1 µM (inactive) with TK-10, 3.61 µM (inactive) in the assay with SR and 17.2 µM (inactive) with SF-268.

As to `CC1(C)[C@@H]2CC[C@]1(C)[C@H](OC(=O)/C=C/c1ccccc1)C2`, the GI50 is 20.7 µM (inactive) in the assay on SF-539; 17.6 µM in the assay with HCT-15; 18.9 µM (inactive) with NCI/ADR-RES; 19.9 µM (inactive) with EKVX; 26 µM (inactive) with MDA-MB-435; 23.8 µM (inactive) in the assay on UACC-257. Besides, the GI50 in the assay with ACHN is 18 µM (inactive); in the assay with HCC 2998, 17 µM (inactive); in the assay with HL-60 it was 18.4 µM (inactive); with MDA-N, 31.3 µM (inactive); in the assay on OVCAR-4, 22 µM (inactive); in the assay on CAKI-1 it was 20.2 µM (inactive). The GI50 with Malme-3M was 17.3 µM (inactive); with OVCAR-3 it was < 0.01 µM (active); in the assay with M14, 29.9 µM (inactive); in the assay with MDA-MB-231, 19.3 µM (inactive); in the assay on TK-10, 36.9 µM (inactive); in the assay on SF-268, 17.3 µM (inactive). Further, the GI50 in the assay on NCI-H23 is 21.7 µM (inactive).

`O=C1C2=Cc3ccccc3OC2(O)Oc2cc(O)cc(O)c21` (stereo unspecified): the GI50 was > 100 µM (inactive) in the assay on SF-539; above 10 µM with HCT-15; > 100 µM (inactive) with NCI/ADR-RES; > 100 µM (inactive) with EKVX; > 100 µM (inactive) with MDA-MB-435; > 100 µM (inactive) in the assay on UACC-257. The GI50 in the assay on ACHN was > 100 µM (inactive); in the assay with HCC 2998 it was > 100 µM (inactive); in the assay with MDA-N, > 100 µM (inactive); with OVCAR-4, 92.3 µM (inactive); with CAKI-1, > 100 µM (inactive); with Malme-3M, > 100 µM (inactive). For the same molecule, the GI50 in the assay with OVCAR-3 is > 10 µM (inactive); in the assay with M14, > 100 µM (inactive); in the assay on MDA-MB-231 it was > 100 µM (inactive); with TK-10, > 100 µM (inactive); in the assay with SF-268, > 100 µM (inactive); with NCI-H23 it was 59.2 µM (inactive).

For the molecule `COc1c2cc([N+](=O)[O-])cc1CN(C(=O)C(F)(F)F)CCOCCN(C(=O)C(F)(F)F)C2`, the GI50 in the assay on SF-539 was > 100 µM (inactive); in the assay with HCT-15, above 100 µM; in the assay on EKVX, > 100 µM (inactive); in the assay with MDA-MB-435 it was > 100 µM (inactive); in the assay on UACC-257 it was > 100 µM (inactive); in the assay with ACHN it was > 100 µM (inactive). Further, the GI50 in the assay with HL-60, in the assay on MDA-N, in the assay with OVCAR-4, in the assay with CAKI-1, in the assay with Malme-3M and in the assay on OVCAR-3 was > 100 µM (inactive) in each case. In addition, the GI50 in the assay with M14, in the assay on MDA-MB-231, in the assay with TK-10, in the assay with SF-268 and with NCI-H23 was > 100 µM (inactive) each time.

As for `COc1ccccc1C1(c2c(OC)c(=O)c2=O)SCCCS1`, the GI50 in the assay on SF-539 was > 100 µM (inactive); in the assay with HCT-15 it was 61 µM; in the assay on NCI/ADR-RES, 73.6 µM (inactive); with EKVX, 75.2 µM (inactive); in the assay on MDA-MB-435 it was > 100 µM (inactive); in the assay on UACC-257, 85.1 µM (inactive). Moreover, the GI50 with ACHN, in the assay with HCC 2998, in the assay on HL-60, in the assay on MDA-N, in the assay on OVCAR-4 and in the assay with CAKI-1 was > 100 µM (inactive) in each case. Besides, the GI50 in the assay with Malme-3M was 62.5 µM (inactive); in the assay with OVCAR-3 it was 86.7 µM (inactive); with M14, > 100 µM (inactive); in the assay on MDA-MB-231 it was 83.2 µM (inactive); with TK-10, > 100 µM (inactive); with SF-268, > 100 µM (inactive). The GI50 in the assay on NCI-H23 was 48.3 µM (inactive).
